Results reported in ChEMBL document CHEMBL2203185, “Development of sub-nanomolar dipeptidic ligands of neuropeptide FF receptors” (Bioorg Med Chem Lett, 2012).

Key:
Type in all cases: cell-based
[1] = target: T1, Neuropeptide FF receptor 2 (Homo sapiens, UniProt Q9Y5X5); assay: Displacement of [3H]FFRF-NH2 from human flag-tagged NPFF2 receptor expressed in CHO cells at 500 nM by scintillation counting
[2] = target: T1, Neuropeptide FF receptor 2; assay: Displacement of [3H]FFRF-NH2 from human flag-tagged NPFF2 receptor expressed in CHO cells at 5 uM by scintillation counting
[3] = target: T2, Neuropeptide FF receptor 1 (Homo sapiens, UniProt Q9GZQ6); assay: Displacement of [3H]FFRF-NH2 from human flag-tagged NPFF1 receptor expressed in CHO cells at 500 nM by scintillation counting
[4] = target: T2, Neuropeptide FF receptor 1; assay: Displacement of [3H]FFRF-NH2 from human flag-tagged NPFF1 receptor expressed in CHO cells at 5 uM by scintillation counting

T2 sequence (Q9GZQ6 whole entry): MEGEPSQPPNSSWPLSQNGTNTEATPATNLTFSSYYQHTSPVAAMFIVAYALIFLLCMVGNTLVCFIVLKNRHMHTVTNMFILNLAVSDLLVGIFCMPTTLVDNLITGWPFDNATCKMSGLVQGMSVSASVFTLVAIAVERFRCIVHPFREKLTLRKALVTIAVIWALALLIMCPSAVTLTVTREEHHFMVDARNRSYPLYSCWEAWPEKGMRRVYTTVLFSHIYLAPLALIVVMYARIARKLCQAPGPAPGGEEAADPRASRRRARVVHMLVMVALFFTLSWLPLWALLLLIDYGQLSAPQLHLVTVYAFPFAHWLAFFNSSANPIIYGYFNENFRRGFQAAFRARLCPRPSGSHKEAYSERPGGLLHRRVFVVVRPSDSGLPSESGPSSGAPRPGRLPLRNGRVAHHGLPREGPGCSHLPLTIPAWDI
T1 sequence (Q9Y5X5 whole entry): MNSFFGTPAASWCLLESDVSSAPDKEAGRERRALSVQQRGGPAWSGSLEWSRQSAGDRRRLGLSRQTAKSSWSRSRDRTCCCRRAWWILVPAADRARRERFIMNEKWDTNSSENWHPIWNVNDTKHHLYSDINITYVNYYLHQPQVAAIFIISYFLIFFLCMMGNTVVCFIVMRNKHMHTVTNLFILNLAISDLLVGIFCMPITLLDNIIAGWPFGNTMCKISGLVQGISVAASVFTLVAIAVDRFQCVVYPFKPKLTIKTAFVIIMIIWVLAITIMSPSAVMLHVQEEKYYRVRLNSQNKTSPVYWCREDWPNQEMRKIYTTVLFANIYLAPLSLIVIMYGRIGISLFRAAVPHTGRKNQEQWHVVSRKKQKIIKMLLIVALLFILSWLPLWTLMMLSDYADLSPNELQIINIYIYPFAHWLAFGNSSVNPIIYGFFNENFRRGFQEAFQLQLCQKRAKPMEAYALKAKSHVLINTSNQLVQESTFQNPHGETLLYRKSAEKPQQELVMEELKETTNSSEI

N=C(N)NCCC[C@H](NC(=O)c1ccc2ccccc2c1)C(=O)N[C@@H](Cc1ccccc1)C(N)=O
inhibition [1]: 23%
inhibition [2]: 56%
inhibition [3]: 27%
inhibition [4]: 81%

Cc1ccc(CC(=O)N[C@@H](CCCNC(=N)N)C(=O)N[C@@H](Cc2ccccc2)C(N)=O)cc1
inhibition [1]: 5%
inhibition [2]: 14%
inhibition [3]: 34%
inhibition [4]: 72%

N=C(N)NCCC[C@H](NC(=O)c1c(Cl)cccc1Cl)C(=O)N[C@@H](Cc1ccccc1)C(N)=O
inhibition [1]: 0%
inhibition [2]: 11%
inhibition [3]: 30%
inhibition [4]: 85%

N=C(N)NCCC[C@H](NC(=O)c1cccc(-c2ccccc2)c1)C(=O)N[C@@H](Cc1ccccc1)C(N)=O
inhibition [1]: 27%
inhibition [2]: 56%
inhibition [3]: 26%
inhibition [4]: 82%

N=C(N)NCCC[C@H](NC(=O)c1nc2ccccc2[nH]1)C(=O)N[C@@H](Cc1ccccc1)C(N)=O
inhibition [1]: 12%
inhibition [2]: 49%
inhibition [3]: 35%
inhibition [4]: 98%

N=C(N)NCCC[C@H](NC(=O)Cc1ccc(Cl)cc1)C(=O)N[C@@H](Cc1ccccc1)C(N)=O
inhibition [1]: 9%
inhibition [2]: 63%
inhibition [3]: 62%
inhibition [4]: 100%

N=C(N)NCCC[C@H](NC(=O)Cc1ccccc1Cl)C(=O)N[C@@H](Cc1ccccc1)C(N)=O
inhibition [1]: 16%
inhibition [2]: 60%
inhibition [3]: 47%
inhibition [4]: 83%

N=C(N)NCCC[C@H](NC(=O)c1ccc2nc[nH]c2c1)C(=O)N[C@@H](Cc1ccccc1)C(N)=O
inhibition [1]: 8%
inhibition [2]: 27%
inhibition [3]: 9%
inhibition [4]: 28%

N=C(N)NCCC[C@H](NC(=O)C(c1ccccc1)c1ccccc1)C(=O)N[C@@H](Cc1ccccc1)C(N)=O
inhibition [1]: 0%
inhibition [2]: 33%
inhibition [3]: 34%
inhibition [4]: 88%

N=C(N)NCCC[C@H](NC(=O)c1[nH]c2ccccc2c1-c1ccccc1)C(=O)N[C@@H](Cc1ccccc1)C(N)=O
inhibition [1]: 14%
inhibition [2]: 27%
inhibition [3]: 39%
inhibition [4]: 92%

N=C(N)NCCC[C@H](NC(=O)c1ccc(Cl)cc1Cl)C(=O)N[C@@H](Cc1ccccc1)C(N)=O
inhibition [1]: 2%
inhibition [2]: 38%
inhibition [3]: 0%
inhibition [4]: 75%

N=C(N)NCCC[C@@H](NC(=O)c1cccc(-c2ccccc2)c1)C(=O)N[C@@H](Cc1ccccc1)C(N)=O
inhibition [1]: 65%
inhibition [2]: 72%
inhibition [3]: 85%
inhibition [4]: 99%

N=C(N)NCCC[C@H](NC(=O)C12CC3CC(CC(C3)C1)C2)C(=O)N[C@@H](Cc1ccccc1)C(N)=O
inhibition [1]: 40%
inhibition [2]: 85%
inhibition [3]: 60%
inhibition [4]: 97%

N=C(N)NCCC[C@H](NC(=O)c1cccc(Cl)c1)C(=O)N[C@@H](Cc1ccccc1)C(N)=O
inhibition [1]: 0%
inhibition [2]: 20%
inhibition [3]: 56%
inhibition [4]: 84%

N=C(N)NCCC[C@H](NC(=O)c1ccc(-c2ccccc2)cc1)C(=O)N[C@@H](Cc1ccccc1)C(N)=O
inhibition [1]: 0%
inhibition [2]: 15%
inhibition [3]: 20%
inhibition [4]: 43%

COc1ccc(C(=O)N[C@@H](CCCNC(=N)N)C(=O)N[C@@H](Cc2ccccc2)C(N)=O)cc1OC
inhibition [1]: 0%
inhibition [2]: 27%
inhibition [3]: 13%
inhibition [4]: 65%

N=C(N)NCCC[C@H](NC(=O)c1ccccc1-c1ccccc1)C(=O)N[C@@H](Cc1ccccc1)C(N)=O
inhibition [1]: 22%
inhibition [2]: 30%
inhibition [3]: 96%
inhibition [4]: 100%

N=C(N)NCCC[C@H](NC(=O)/C=C/c1cccc(O)c1)C(=O)N[C@@H](Cc1ccccc1)C(N)=O
inhibition [1]: 15%
inhibition [2]: 47%
inhibition [3]: 21%
inhibition [4]: 80%

N=C(N)NCCC[C@@H](NC(=O)Cc1ccccc1)C(=O)N[C@@H](Cc1ccccc1)C(N)=O
inhibition [1]: 30%
inhibition [2]: 40%
inhibition [3]: 68%
inhibition [4]: 87%

CC(C)(C)c1ccc(C(=O)N[C@@H](CCCNC(=N)N)C(=O)N[C@@H](Cc2ccccc2)C(N)=O)cc1
inhibition [1]: 14%
inhibition [2]: 31%
inhibition [3]: 43%
inhibition [4]: 94%

N=C(N)NCCC[C@@H](NC(=O)c1ccccc1)C(=O)N[C@H](Cc1ccccc1)C(N)=O
inhibition [1]: 15%
inhibition [2]: 30%
inhibition [3]: 35%
inhibition [4]: 73%

N=C(N)NCCC[C@@H](NC(=O)c1cccc(-c2ccccc2)c1)C(=O)N[C@H](Cc1ccccc1)C(N)=O
inhibition [1]: 6%
inhibition [2]: 38%
inhibition [3]: 63%
inhibition [4]: 88%

N=C(N)NCCC[C@@H](NC(=O)c1ccc(-c2ccccc2)cc1)C(=O)N[C@@H](Cc1ccccc1)C(N)=O
inhibition [1]: 43%
inhibition [2]: 57%
inhibition [3]: 81%
inhibition [4]: 92%

N=C(N)NCCC[C@H](NC(=O)c1cnc2ccccc2c1)C(=O)N[C@@H](Cc1ccccc1)C(N)=O
inhibition [1]: 24%
inhibition [2]: 47%
inhibition [3]: 22%
inhibition [4]: 79%

N=C(N)NCCC[C@H](NC(=O)/C=C/c1ccccc1)C(=O)N[C@@H](Cc1ccccc1)C(N)=O
inhibition [1]: 24%
inhibition [2]: 46%
inhibition [3]: 3%
inhibition [4]: 58%

N=C(N)NCCC[C@H](NC(=O)CC(c1ccccc1)c1ccccc1)C(=O)N[C@@H](Cc1ccccc1)C(N)=O
inhibition [1]: 16%
inhibition [2]: 40%
inhibition [3]: 37%
inhibition [4]: 89%

N=C(N)NCCC[C@H](NC(=O)CCC(=O)O)C(=O)N[C@@H](Cc1ccccc1)C(N)=O
inhibition [1]: 0%
inhibition [2]: 20%
inhibition [3]: 29%
inhibition [4]: 34%

N=C(N)NCCC[C@@H](NC(=O)c1ccccc1-c1ccccc1)C(=O)N[C@H](Cc1ccccc1)C(N)=O
inhibition [1]: 8%
inhibition [2]: 70%
inhibition [3]: 85%
inhibition [4]: 92%

N=C(N)NCCC[C@H](NC(=O)/C=C/c1ccccc1O)C(=O)N[C@@H](Cc1ccccc1)C(N)=O
inhibition [1]: 17%
inhibition [2]: 77%
inhibition [3]: 25%
inhibition [4]: 82%

CCCCCC(=O)N[C@@H](CCCNC(=N)N)C(=O)N[C@@H](Cc1ccccc1)C(N)=O
inhibition [1]: 30%
inhibition [2]: 53%
inhibition [3]: 45%
inhibition [4]: 95%

N=C(N)NCCC[C@H](NC(=O)c1ccc2ccccc2n1)C(=O)N[C@@H](Cc1ccccc1)C(N)=O
inhibition [1]: 28%
inhibition [2]: 82%
inhibition [3]: 34%
inhibition [4]: 100%

N=C(N)NCCC[C@H](NC(=O)c1ccc(O)c(O)c1)C(=O)N[C@@H](Cc1ccccc1)C(N)=O
inhibition [1]: 0%
inhibition [2]: 28%
inhibition [3]: 18%
inhibition [4]: 56%

N=C(N)NCCC[C@H](NC(=O)Cc1ccccc1O)C(=O)N[C@@H](Cc1ccccc1)C(N)=O
inhibition [1]: 16%
inhibition [2]: 37%
inhibition [3]: 27%
inhibition [4]: 92%

N=C(N)NCCC[C@H](NC(=O)c1ccc(Cl)cc1)C(=O)N[C@@H](Cc1ccccc1)C(N)=O
inhibition [1]: 3%
inhibition [2]: 7%
inhibition [3]: 37%
inhibition [4]: 59%

N=C(N)NCCC[C@H](NC(=O)/C=C/c1cnc[nH]1)C(=O)N[C@@H](Cc1ccccc1)C(N)=O
inhibition [1]: 0%
inhibition [2]: 18%
inhibition [3]: 1%
inhibition [4]: 22%
